Measured values from PMC11178787, “Development of a natural product optimization strategy for inhibitors against MraY, a promising antibacterial target” (Nature Communications, 2024).
≈ marks a conversion by molar mass, not a printed value.

Columns and labels:
MraYSA (S. aureus MraY) = MraYSA (S. aureus MraY) (Staphylococcus aureus, UniProt Q2FZ93); experiment: fluorescence assay of dansylated lipid I formation; type: biochemical
K. pneumoniae ATCC 13883 = system: T1, K. pneumoniae ATCC 13883; experiment: microbe, parasite or virus in culture; conditions: Klebsiella pneumoniae, ATCC13883
T1 construct: ATCC 13883
Procedure: (§1) MICs were determined by a microdilution broth method as recommended by the CLSI with MHB-II. For MICs of stable analogues, a 2-fold dilution of each compound was prepared in DMSO at 100-fold of the final concentration. The strains were inoculated with 5 × 10^5 cfu/mL in 96-well plates (each 100 μL/well), and 1 μL of DMSO solutions of the samples were added (contained less than 1% DMSO). The plates were incubated at 37 °C for 18 h and then MICs were determined. MICs of stable analogues in Table 1 were the highest value in three trials. MICs in Supplementary Table 1 were determined in one trial.  Fig. 2 Results of biological evaluations of hydrazone library. a General structures of hydrazine fragment moiety are shown. Each hydrazine class are represented by different colours (green; BZ, cyan; PA, grey; AC, yellow; AA, orange; LA). b–h MraY inhibitory activity and antibacterial activity of the hydrazone library. The bar graphs show the relative enzyme activity with DMSO as 100% when the compound is treated at given concentration (b,c; TUN at 100 nM, d,e; MRY at 10 nM, f.g; MRD at 100 nM, h; CAP at 1000 nM. n = 1), with the lower bars indicating higher inhibitory activity. The colour of the bars corresponds to Fig. 2a. […] Data of control compounds (van: vancomycin, col: colistin) are shown left column in each panel. E. faecium ATCC 35667, S. aureus ATCC 29213, P. aeruginosa ATCC 27853, K. pneumoniae ATCC 13883, E. cloacae ATCC 13047, A. baumannii ATCC 19606, E. coli ATCC 25922.

P. aeruginosa ATCC 27853 = system: T2, P. aeruginosa ATCC 27853; experiment: microbe, parasite or virus in culture; conditions: Pseudomonas aeruginosa, ATCC27853
T2 construct: ATCC 27853
Procedure: as §1

S. aureus ATCC 29213 = system: T3, S. aureus ATCC 29213; experiment: microbe, parasite or virus in culture; conditions: Staphylococcus aureus, ATCC29213
T3 construct: ATCC 29213
Procedure: as §1

E. coli ATCC 25922 = system: T4, E. coli ATCC 25922; experiment: microbe, parasite or virus in culture; conditions: Escherichia coli, ATCC25922
T4 construct: ATCC 25922
Procedure: as §1

E. faecium ATCC 35667 = system: T5, E. faecium ATCC 35667; experiment: microbe, parasite or virus in culture; conditions: Enterococcus faecium, ATCC35667
T5 construct: ATCC 35667
Procedure: as §1

E. cloacae ATCC 13047 = system: T6, E. cloacae ATCC 13047; experiment: microbe, parasite or virus in culture; conditions: Enterobacter cloacae, ATCC13047
T6 construct: ATCC 13047
Procedure: as §1

A. baumannii ATCC 19606 = system: T7, A. baumannii ATCC 19606; experiment: microbe, parasite or virus in culture; conditions: Acinetobacter baumannii, ATCC19606
T7 construct: ATCC 19606
Procedure: as §1

MraYSA (S. aureus MraY), sequence (Q2FZ93 whole entry): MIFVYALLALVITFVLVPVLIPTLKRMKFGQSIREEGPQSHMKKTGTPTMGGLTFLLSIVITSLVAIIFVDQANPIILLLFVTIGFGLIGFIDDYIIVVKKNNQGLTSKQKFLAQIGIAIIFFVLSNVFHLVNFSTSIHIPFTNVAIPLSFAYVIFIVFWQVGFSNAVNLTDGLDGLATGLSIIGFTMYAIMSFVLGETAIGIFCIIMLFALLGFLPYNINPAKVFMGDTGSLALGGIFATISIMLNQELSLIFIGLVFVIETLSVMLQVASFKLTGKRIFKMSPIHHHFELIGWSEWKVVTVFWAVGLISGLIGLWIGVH

| SMILES | IC50 (MraYSA (S. aureus MraY)) | MIC (K. pneumoniae ATCC 13883) | MIC (P. aeruginosa ATCC 27853) | MIC (S. aureus ATCC 29213) | MIC (E. coli ATCC 25922) | MIC (E. faecium ATCC 35667) | MIC (E. cloacae ATCC 13047) | MIC (A. baumannii ATCC 19606) |
| --- | --- | --- | --- | --- | --- | --- | --- | --- |
| CC(C)(C)c1ccc(C(=O)N/N=C/c2ccc(CN[C@H](C(=O)O)[C@H](O[C@@H]3O[C@H](CN)[C@@H](O)[C@H]3O)[C@H]3O[C@@H](n4ccc(=O)[nH]c4=O)[C@H](O)[C@@H]3O)cc2)cc1 [MRYp-BZ2] | 2.4 nM | – | – | – | – | – | – | – |
| CC[C@H]1OC(=O)[C@H](C)[C@@H](O[C@H]2C[C@@](C)(OC)[C@@H](O)[C@H](C)O2)[C@H](C)[C@@H](O[C@@H]2O[C@H](C)C[C@H](N(C)C)[C@H]2O)[C@](C)(O)C[C@@H](C)C(=O)[C@H](C)[C@@H](O)[C@]1(C)O [erythromycin] | – | > 50 µM | > 50 µM | < 0.5 µM | 50 µM (≈ 36.7 µg/mL) | < 0.5 µM | > 50 µM | 50 µM (≈ 36.7 µg/mL) |
| CN[C@@H]1[C@H](O[C@H]2[C@H](O[C@H]3[C@H](O)[C@@H](O)[C@H](N=C(N)N)[C@@H](O)[C@@H]3N=C(N)N)O[C@@H](C)[C@]2(O)C=O)O[C@@H](CO)[C@H](O)[C@H]1O [streptomycin] | – | 50 µM (≈ 29.1 µg/mL) | 50 µM (≈ 29.1 µg/mL) | 50 µM (≈ 29.1 µg/mL) | 50 µM (≈ 29.1 µg/mL) | 50 µM (≈ 29.1 µg/mL) | > 50 µM | > 50 µM |
| CC[C@H]1OC(=O)[C@H](C)[C@@H](O[C@H]2C[C@@](C)(OC)[C@@H](O)[C@H](C)O2)[C@H](C)[C@@H](O[C@@H]2O[C@H](C)C[C@H](N(C)C)[C@H]2O)[C@](C)(O)C[C@@H](C)CN(C)[C@H](C)[C@@H](O)[C@]1(C)O [azithromycin] | – | 5 µM (≈ 3.74 µg/mL) | 50 µM (≈ 37.4 µg/mL) | 5 µM (≈ 3.74 µg/mL) | 5 µM (≈ 3.74 µg/mL) | < 0.5 µM | 50 µM (≈ 37.4 µg/mL) | 50 µM (≈ 37.4 µg/mL) |
| CO[C@H]1/C=C/O[C@@]2(C)Oc3c(C)c(O)c4c(O)c(c(/C=N/N5CCN(C)CC5)c(O)c4c3C2=O)NC(=O)/C(C)=C\C=C\[C@H](C)[C@H](O)[C@@H](C)[C@@H](O)[C@@H](C)[C@H](OC(C)=O)[C@@H]1C [rifampicin] | – | 50 µM (≈ 41.1 µg/mL) | 50 µM (≈ 41.1 µg/mL) | < 0.5 µM | 5 µM (≈ 4.11 µg/mL) | 5 µM (≈ 4.11 µg/mL) | 50 µM (≈ 41.1 µg/mL) | 5 µM (≈ 4.11 µg/mL) |
